In PMC2999418, “Biological Activity and Binding Site Characteristics of the PA1b Entomotoxin on Insects from Different Orders” (Journal of Insect Science, 2007):

Molecular target: PA1b binding protein on membrane extracts
Test: 125I-PA1b binding (competition) on insect membrane extracts
Design: species or system Mamestra brassicae
Conditions: M. brassicae membrane extracts; competition with purified 3741 isoform
Procedure: The isolation of membrane proteins for binding studies was performed as described by Gressent et al. ([2003]). For PA1b degradation tests, insect extracts were prepared as follows, 1 g of insects were ground with a mortar and pestle in liquid nitrogen. The resulting powder was resuspended in 2 ml of extraction buffer (20 mM Tris-HCl pH 8; 0.25 M sucrose; 2 mM MgCl2). The slurry was centrifuged for 2 min at 1000 g, and the supernatant was stored at -2O°C until required. All the operations were performed at 4°C.
The peptidic toxin PA1b-3471 isoform was labelled with I^125 to a specific radioactivity of about 900 Ci.mmor^-1, and then used for binding studies with membrane extracts, according to Gressent et al. ([2003]).
PA1b binding activity was present in all insect species, except for the resistant weevil strains and the pea specific pest Bruchus pisorum, regardless of the sensitivity or insensitivity of these insects to PA1b toxicity, as evaluated from our insect bioassays. […] The relative abundance of the binding sites was also slightly different in this group of species, varying from 10 pmol/mg of protein for T. pretiosum to a maximum of 79 pmol/mg of protein for M. persicae.

For “ASCNGVCSPFEMPPCGTSACRCIPVGLVIGYCR NPSG (bicyclic or more) [PA1b, plant peptide of 37 amino acids purified from pea (Pisum sativum) seeds; entomotoxic cystine-knot peptide with three disulfide bonds]”, the Kd was 20 nM.
